This assay concerns the target T1, α-synuclein (recombinant fibrils) (Homo sapiens, UniProt P37840).
T1 construct: gene SNCA; recombinant human α-syn fibrils (pET-3a construct)
Put plainly: radioligand saturation binding (filtration) on recombinant fibrils.

In general, Kd refers to the equilibrium constant for the complex coming apart. Consider `COc1ccc(/C=C/c2cn(-c3ccccc3)nn2)cc1` [50.1, KAC-50.1], for which the Kd amounted to 35 nM.

Source of the values: paper PMC11587505, “Identification and In Vitro and In Vivo Characterization of KAC-50.1 as a Potential α-Synuclein PET Radioligand” (ACS Chemical Neuroscience, 2024).
